ChEMBL document CHEMBL1201862, “PubChem BioAssay data set” (2004)
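48-hour exposure; five concentrations; linearly interpolated endpoints. GI50: concentration for 50% inhibition of growth.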 Active and inactive are the calls of the source. Rule as the data show it: active = GI50 up to about 1.1 µM and inactive = higher.

Assays:
Test in all cases: NCI anticancer screen, dose series, 48 h
NCI-H522 = system: NCI-H522
HOP-92 = system: HOP-92
OVCAR-8 = system: OVCAR-8
786-0 = system: 786-0
HCT-15 = system: HCT-15
SK-OV-3 = system: SK-OV-3
CAKI-1 = system: CAKI-1
ACHN = system: ACHN
SF-268 = system: SF-268
UACC-257 = system: UACC-257
HCC 2998 = system: HCC 2998
MOLT-4 = system: MOLT-4
SF-539 = system: SF-539
IGROV-1 = system: IGROV-1
OVCAR-5 = system: OVCAR-5
PC-3 = system: PC-3
MDA-N = system: MDA-N
MDA-MB-231 = system: MDA-MB-231
MDA-MB-435 = system: MDA-MB-435
DU-145 = system: DU-145

| SMILES | GI50 (NCI-H522) | GI50 (HOP-92) | GI50 (OVCAR-8) | GI50 (786-0) | GI50 (HCT-15) [µM] | GI50 (SK-OV-3) | GI50 (CAKI-1) | GI50 (ACHN) | GI50 (SF-268) | GI50 (UACC-257) | GI50 (HCC 2998) | GI50 (MOLT-4) | GI50 (SF-539) | GI50 (IGROV-1) | GI50 (OVCAR-5) | GI50 (PC-3) | GI50 (MDA-N) | GI50 (MDA-MB-231) | GI50 (MDA-MB-435) | GI50 (DU-145) |
| --- | --- | --- | --- | --- | --- | --- | --- | --- | --- | --- | --- | --- | --- | --- | --- | --- | --- | --- | --- | --- |
| O=C(O/N=C1/CCCC/C1=C\c1ccccc1)c1ccc(Cl)c(Cl)c1 | 18.4 µM (inactive) | 26.8 µM (inactive) | 17.9 µM (inactive) | 30.2 µM (inactive) | 33.3 | > 100 µM (inactive) | 27.3 µM (inactive) | 15.5 µM (inactive) | 11.5 µM (inactive) | > 100 µM (inactive) | > 100 µM (inactive) | 13.3 µM (inactive) | 24.5 µM (inactive) | 21.5 µM (inactive) | 69.2 µM (inactive) |  |  |  |  |  |
| CC(C)(C)C1CC[C@H]2c3c([nH]c4ccccc34)[C@H]3C(=O)N(c4ccc(F)cc4)C(=O)[C@H]3[C@H]2C1 (stereo partly drawn) | 12.4 µM (inactive) | 28.1 µM (inactive) | 12.1 µM (inactive) | 11.3 µM (inactive) | 20.7 | 17.8 µM (inactive) | 17.9 µM (inactive) | 14.1 µM (inactive) | 13.6 µM (inactive) | 22.6 µM (inactive) | 13.6 µM (inactive) | 13.2 µM (inactive) | 18.9 µM (inactive) | 17 µM (inactive) | 28.9 µM (inactive) |  |  |  |  |  |
| OCC(O)CNc1ccnc2cc(Cl)ccc12 (stereo not drawn) | > 100 µM (inactive) | > 100 µM (inactive) | > 100 µM (inactive) | > 100 µM (inactive) | > 100 | > 100 µM (inactive) | > 100 µM (inactive) | > 100 µM (inactive) | > 100 µM (inactive) | > 100 µM (inactive) | > 100 µM (inactive) | > 100 µM (inactive) | > 100 µM (inactive) | > 100 µM (inactive) | > 100 µM (inactive) |  |  |  |  |  |
| CN1CCC2(CC1)SSC1(CCN(C)CC1)S2 |  | > 100 µM (inactive) | > 100 µM (inactive) | > 100 µM (inactive) | > 100 | > 100 µM (inactive) |  | > 100 µM (inactive) |  | > 100 µM (inactive) |  | > 100 µM (inactive) | > 100 µM (inactive) |  | > 100 µM (inactive) | > 100 µM (inactive) | > 100 µM (inactive) | > 100 µM (inactive) | > 100 µM (inactive) |  |
| Cn1c(NC(=O)NC23CC4CC(CC(C4)C2)C3)nc2ccccc21 | 78.7 µM (inactive) | 25.5 µM (inactive) | > 100 µM (inactive) | 17.1 µM (inactive) | > 100 | 17.4 µM (inactive) | 48.6 µM (inactive) | 27.5 µM (inactive) | 28.5 µM (inactive) | 94.2 µM (inactive) | > 100 µM (inactive) | > 100 µM (inactive) | 81.1 µM (inactive) | > 100 µM (inactive) | > 100 µM (inactive) |  |  |  |  |  |
| COc1cccc(/C=C2\N=C(Cl)OC2=O)c1O | > 100 µM (inactive) | > 100 µM (inactive) | > 100 µM (inactive) | > 94.6 µM (inactive) | > 100 | > 38.7 µM (inactive) | > 100 µM (inactive) | > 100 µM (inactive) | > 80 µM (inactive) | > 100 µM (inactive) | > 100 µM (inactive) | > 100 µM (inactive) | > 100 µM (inactive) | > 100 µM (inactive) | > 100 µM (inactive) |  |  |  |  | > 100 µM (inactive) |
| O=C(O/N=C1/CCC/C1=C\c1ccccc1)c1ccc(Cl)c(Cl)c1 | > 100 µM (inactive) | > 100 µM (inactive) | > 100 µM (inactive) | > 100 µM (inactive) | > 100 | > 100 µM (inactive) | > 100 µM (inactive) | > 100 µM (inactive) | > 100 µM (inactive) | > 100 µM (inactive) | > 100 µM (inactive) | > 100 µM (inactive) | > 100 µM (inactive) | > 100 µM (inactive) | > 100 µM (inactive) |  |  |  |  |  |
| COc1cc(Nc2cnc3cc(N)ccc3n2)cc(OC)c1OC | 57.5 µM (inactive) | > 100 µM (inactive) | 78.2 µM (inactive) | > 100 µM (inactive) | 55.2 | 69.7 µM (inactive) | 83.4 µM (inactive) | > 100 µM (inactive) | > 100 µM (inactive) | > 100 µM (inactive) | 50.1 µM (inactive) | 52.2 µM (inactive) | > 100 µM (inactive) | > 100 µM (inactive) | > 100 µM (inactive) |  |  |  |  |  |
| COC1OC(C)/C(=N/O)C2OC(C)(C)OC12 (stereo not drawn) | > 100 µM (inactive) | > 100 µM (inactive) | > 100 µM (inactive) | > 100 µM (inactive) | > 100 | > 100 µM (inactive) | > 100 µM (inactive) | > 100 µM (inactive) | > 100 µM (inactive) | > 100 µM (inactive) | > 100 µM (inactive) | > 100 µM (inactive) | > 100 µM (inactive) | > 100 µM (inactive) | > 100 µM (inactive) | > 100 µM (inactive) |  | > 100 µM (inactive) | > 100 µM (inactive) | > 100 µM (inactive) |
| NC1=C(C(=O)O)C(=O)C(Nc2c(O)cccc2C(=O)O)=CC1=O | > 100 µM (inactive) | > 100 µM (inactive) | > 100 µM (inactive) | > 100 µM (inactive) | > 100 | > 100 µM (inactive) | > 100 µM (inactive) | > 100 µM (inactive) | 1 µM (active) | > 100 µM (inactive) | 31.6 µM (inactive) | > 100 µM (inactive) | > 100 µM (inactive) | > 100 µM (inactive) | > 100 µM (inactive) |  |  |  |  |  |
| CN1C2CCC1CC(=CCOC(c1ccc(F)cc1)c1ccc(F)cc1)C2 | 11.6 µM (inactive) |  | 17.1 µM (inactive) | 14 µM (inactive) | 15.7 | 17 µM (inactive) | 16.4 µM (inactive) | 17.4 µM (inactive) | 12.9 µM (inactive) | 16.1 µM (inactive) | 4 µM (inactive) | 15 µM (inactive) | 16.4 µM (inactive) | 15.7 µM (inactive) | 17.4 µM (inactive) | 16.1 µM (inactive) |  | 17.9 µM (inactive) | 12.8 µM (inactive) | 16.9 µM (inactive) |
| CCN1CCC(O)(c2ccc(C)cc2)C(C(=O)c2ccc(C)cc2)C1 (stereo not drawn) | 1.94 µM (inactive) | 19.7 µM (inactive) | 25.5 µM (inactive) | 13.5 µM (inactive) | 19.6 | > 100 µM (inactive) | 17.2 µM (inactive) | 17.5 µM (inactive) | > 53 µM (inactive) | 19.1 µM (inactive) | 52.4 µM (inactive) | 29 µM (inactive) | > 43.5 µM (inactive) | > 42.9 µM (inactive) | 20.2 µM (inactive) |  |  |  |  |  |
| O=[N+]([O-])c1ccc(C2=NN(c3ccccc3)C[N+](c3ccc(Br)cc3)=N2)cc1 | 38.1 µM (inactive) | 78.7 µM (inactive) | > 100 µM (inactive) | > 100 µM (inactive) | > 100 | > 100 µM (inactive) | > 100 µM (inactive) | > 100 µM (inactive) | 60.5 µM (inactive) | > 100 µM (inactive) | 41.6 µM (inactive) | 44.3 µM (inactive) | 46 µM (inactive) | > 100 µM (inactive) | > 100 µM (inactive) |  |  |  |  |  |
| CCOC(=O)C(/N=N\c1ccc(S(N)(=O)=O)cc1)C(C)=O (stereo not drawn) | > 100 µM (inactive) | > 100 µM (inactive) | > 100 µM (inactive) | > 100 µM (inactive) | > 100 | > 100 µM (inactive) | > 100 µM (inactive) | > 100 µM (inactive) | > 100 µM (inactive) | > 100 µM (inactive) | 99.5 µM (inactive) | > 100 µM (inactive) | > 100 µM (inactive) | > 100 µM (inactive) | > 100 µM (inactive) |  |  |  |  |  |
| CC#CS(=O)(=O)c1ccccc1 | 1.62 µM (inactive) | 2.51 µM (inactive) | 3.02 µM (inactive) | 3.43 µM (inactive) | 2.88 | 17.3 µM (inactive) | 1.04 µM (active) | 3.57 µM (inactive) | 15.9 µM (inactive) | 2.88 µM (inactive) | 3.96 µM (inactive) | 0.253 µM (active) | 4.08 µM (inactive) | 11.9 µM (inactive) | 5.58 µM (inactive) | 12.1 µM (inactive) |  | 10.6 µM (inactive) | 10.9 µM (inactive) | 2.82 µM (inactive) |
| CC1(C)/C(=N\Nc2ccc([N+](=O)[O-])cc2[N+](=O)[O-])C2CCC1C2 (stereo not drawn) | > 100 µM (inactive) | 93.8 µM (inactive) | > 100 µM (inactive) | 81.8 µM (inactive) | > 100 | 27.7 µM (inactive) | > 100 µM (inactive) | 54 µM (inactive) | > 100 µM (inactive) | 19.3 µM (inactive) |  | > 100 µM (inactive) |  | > 100 µM (inactive) | > 100 µM (inactive) | > 100 µM (inactive) | > 100 µM (inactive) |  | > 100 µM (inactive) | > 100 µM (inactive) |
| CC(=O)OC(C)(C)/C=C/C(=O)[C@](C)(O)[C@H]1[C@H](O)C[C@@]2(C)[C@@H]3CC=C4[C@@H](C[C@H](O)C(=O)C4(C)C)[C@]3(CO)C(=O)C[C@]12C [CUCURBITACIN A] | 0.288 µM (active) | 0.237 µM (active) | 0.615 µM (active) | 0.316 µM (active) | 0.468 | 0.391 µM (active) | 0.243 µM (active) | 0.262 µM (active) | 0.168 µM (active) | 0.364 µM (active) | 0.35 µM (active) | 3.1 µM (inactive) | 0.285 µM (active) | 0.634 µM (active) | 0.955 µM (active) |  |  |  |  |  |
